Assay results: paper PMC12528448, “Resistance to CDK7 inhibitors directed by acquired mutation of a conserved residue in cancer cells” (The EMBO Journal, 2025)
Values joined by “and” are separate entries in the source; they are usually repeats but may differ in a detail not shown here. Identical values can stand only once.

Tests used:
Type in all cases: cell-based, human
[1] = test system: 22Rv1 homozygous CDK7-D97N CL3 cells; assay: IncuCyte confluency growth, 22Rv1 homozygous CDK7-D97N CL3
Procedure: (§1) To determine the IC50 of drug treatments on growth, cells were seeded in 96-well culture plates. Two days after seeding, the cells were treated with increasing concentrations of drugs and incubated for 4 days. Cell number was determined using the SRB assay (Skehan et al, [1990]), and IC50 values were calculated using non-linear regression curve fitting in GraphPad Prism v10. For all other growth experiments, cells were seeded into 96-well plates, and appropriate drugs were added 2 days after seeding. Cells were then incubated in an IncuCyte Zoom live-cell imager, with cell confluency measured every 6 h. Cell doubling times were determined by non-linear curve fitting (exponential growth equation) in GraphPad Prism v10.

22Rv1-SamR cells [2] = assay: Growth assay (SRB), Samuraciclib-resistant 22Rv1; conditions: for % Growth: 22Rv1 SamR, 4 days, biological reps
How it was run: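 Cells are seeded and, two days later, exposed to drug. The SRB endpoint follows 4 days of treatment across increasing doses and yields IC50 by nonlinear regression. The confluency assays instead monitor growth every 6 h and report doubling time from an exponential model.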

22Rv1 cells = assay: IncuCyte confluency growth, 22Rv1
Procedure: as §1

MCF7-CDK7-D97N cells = assay: Growth assay (SRB), MCF7 CDK7-D97N knock-in; conditions: for % Growth: MCF7 CDK7 D99N, biological reps
How it was run: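 CRISPR-Cas9 knock-in lines were treated with increasing drug concentrations two days after seeding, then grown 4 days. Cell number by SRB staining; IC50 from non-linear regression.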

22Rv1-SamR cells [3] = assay: IncuCyte confluency growth, 22Rv1-SamR; conditions: for % Confluency: 80nM SY1365, 22Rv1-SamR
Procedure: as §1

[4] = test system: PolII and CDK2 phosphorylation in MCF7-CDK7-D97N cells; assay: Immunoblotting of CDK7 targets, MCF7-CDK7-D97N; conditions: 24 h, immunoblot
Procedure: Whole-cell lysates were prepared in RIPA buffer (Sigma-Aldrich), supplemented with protease and phosphatase inhibitor cocktails (Roche). Protein sample concentrations were determined using the Pierce BCA Protein Assay kit (ThermoFisher Scientific). […] PolII CTD phosphorylation antibodies (P-Ser2 (ab5095) and P-Ser5 (ab5131), used at 1:10,000 dilution), as well as total PolII (ab817; 1:2000 dilution) and β-actin (ab6276; 1:100,000 dilution) were purchased from Abcam.

For `CN(C)C/C=C/C(=O)Nc1ccc(C(=O)N[C@@]2(C)CCC[C@@H](Nc3ncc(Cl)c(-c4c[nH]c5ccccc45)n3)C2)nc1` [SY-1365], the “% Confluency” value ([1]; 80nM SY1365, CDK7D97N CL3, 0 hours) was 10.64% and 16.42% and 15.20%, the “% Confluency” value ([1]; 80nM SY1365, CDK7D97N CL3, 6 hours) was 12.17% and 18.19% and 16.81% and the “% Confluency” value ([1]; 80nM SY1365, CDK7D97N CL3, 12 hours) was 12.25% and 16.05% and 14.62%. For the same molecule, the “% Confluency” value ([1]; 80nM SY1365, CDK7D97N CL3, 18 hours) was 11.21% and 14.01% and 12.61%, the “% Confluency” value ([1]; 80nM SY1365, CDK7D97N CL3, 24 hours) was 9.91% and 12.68% and 11.43% and the “% Confluency” value ([1]; 80nM SY1365, CDK7D97N CL3, 30 hours) was 9.03% and 11.88% and 10.71%. For the same molecule, the “% Confluency” value ([1]; 80nM SY1365, CDK7D97N CL3, 36 hours) was 8.55% and 11.34% and 10.26%, the “% Confluency” value ([1]; 80nM SY1365, CDK7D97N CL3, 42 hours) was 8.35% and 11.02% and 9.94% and the “% Confluency” value ([1]; 80nM SY1365, CDK7D97N CL3, 48 hours) was 8.30% and 10.78% and 9.70%. For the same molecule, the “% Confluency” value ([1]; 80nM SY1365, CDK7D97N CL3, 54 hours) was 8.19% and 10.49% and 9.48%, the “% Confluency” value ([1]; 80nM SY1365, CDK7D97N CL3, 60 hours) was 8.11% and 10.33% and 9.30% and the “% Confluency” value ([1]; 80nM SY1365, CDK7D97N CL3, 66 hours) was 8.06% and 10.08% and 9.17%. For the same molecule, the “% Confluency” value ([1]; 80nM SY1365, CDK7D97N CL3, 72 hours) was 8.00% and 9.91% and 9.02%, the “% Confluency” value ([1]; 80nM SY1365, CDK7D97N CL3, 78 hours) was 7.89% and 9.76% and 8.94% and the “% Confluency” value ([1]; 80nM SY1365, CDK7D97N CL3, 84 hours) was 7.83% and 9.66% and 8.79%. The “% Confluency” value ([1]; 80nM SY1365, CDK7D97N CL3, 90 hours) was 7.73% and 9.55% and 8.72%, the “% Confluency” value ([1]; 80nM SY1365, CDK7D97N CL3, 96 hours) was 7.64% and 9.51% and 8.65% and the “% Confluency” value ([1]; 80nM SY1365, CDK7D97N CL3, 114 hours) was 7.42% and 9.25% and 8.52%. The “% Confluency” value ([1]; 80nM SY1365, CDK7D97N CL3, 120 hours) was 7.37% and 9.31% and 8.48%, the “% Confluency” value ([1]; 80nM SY1365, CDK7D97N CL3, 126 hours) was 7.26% and 9.19% and 8.45% and the “% Confluency” value ([1]; 80nM SY1365, CDK7D97N CL3, 132 hours) was 7.22% and 9.15% and 8.43%. For the same molecule, the “% Confluency” value ([1]; 80nM SY1365, CDK7D97N CL3, 138 hours) was 7.16% and 9.12% and 8.33%, the “% Confluency” value ([1]; 80nM SY1365, CDK7D97N CL3, 144 hours) was 7.11% and 8.98% and 8.32% and the “Growth inhibition over time” value ([1]; 22Rv1 homozygous CDK7-D97N clone, IncuCyte confluency, samuraciclib at 1.35 µM) was “potently growth inhibited”. The “Sensitivity in growth assays” value (22Rv1-SamR cells [2]; 22Rv1-SamR) was “remained sensitive”, the “Resistance (Fold), fold increase in IC50 of 22Rv1-SamR relative to 22Rv1” value (22Rv1-SamR cells [2]; 22Rv1-SamR vs 22Rv1) was 1.0 fold and the “% Growth” value (22Rv1-SamR cells [2]; Log10 Conc. (nM) 0.09) was 50.67% and 45.27%. The “% Growth” value (22Rv1-SamR cells [2]; Log10 Conc. (nM) 0.69) was 34.60% and 27.89%, the “% Growth” value (22Rv1-SamR cells [2]; Log10 Conc. (nM) 1.29) was 26.06% and 19.62% and the “% Growth” value (22Rv1-SamR cells [2]; Log10 Conc. (nM) 1.89) was -2.71% and -9.74%. For the same molecule, the “% Growth” value (22Rv1-SamR cells [2]; Log10 Conc. (nM) 2.49) was -0.26% and -8.99%, the “% Growth” value (22Rv1-SamR cells [2]; Log10 Conc. (nM) -0.52) was 81.58% and 73.70% and the “% Growth” value (22Rv1-SamR cells [2]; Log10 Conc. (nM) -1.12) was 90.71% and 90.62%. For the same molecule, the “% Confluency” value (22Rv1 cells; 80nM SY1365, 22Rv1, 0 hours) was 11.42% and 19.49% and 18.80%, the “% Confluency” value (22Rv1 cells; 80nM SY1365, 22Rv1, 6 hours) was 11.80% and 20.40% and 19.49% and the “% Confluency” value (22Rv1 cells; 80nM SY1365, 22Rv1, 12 hours) was 10.21% and 17.43% and 16.82%. The “% Confluency” value (22Rv1 cells; 80nM SY1365, 22Rv1, 18 hours) was 9.13% and 15.66% and 15.15%, the “% Confluency” value (22Rv1 cells; 80nM SY1365, 22Rv1, 24 hours) was 8.54% and 14.77% and 14.37% and the “% Confluency” value (22Rv1 cells; 80nM SY1365, 22Rv1, 30 hours) was 8.21% and 14.28% and 13.85%. The “% Confluency” value (22Rv1 cells; 80nM SY1365, 22Rv1, 36 hours) was 8.00% and 13.79% and 13.42%, the “% Confluency” value (22Rv1 cells; 80nM SY1365, 22Rv1, 42 hours) was 7.74% and 13.41% and 13.03% and the “% Confluency” value (22Rv1 cells; 80nM SY1365, 22Rv1, 48 hours) was 7.60% and 13.19% and 12.71%. For the same molecule, the “% Confluency” value (22Rv1 cells; 80nM SY1365, 22Rv1, 54 hours) was 7.42% and 12.81% and 12.32%, the “% Confluency” value (22Rv1 cells; 80nM SY1365, 22Rv1, 60 hours) was 7.30% and 12.50% and 12.14% and the “% Confluency” value (22Rv1 cells; 80nM SY1365, 22Rv1, 66 hours) was 7.19% and 12.29% and 11.85%. The “% Confluency” value (22Rv1 cells; 80nM SY1365, 22Rv1, 72 hours) was 7.07% and 12.06% and 11.63%, the “% Confluency” value (22Rv1 cells; 80nM SY1365, 22Rv1, 78 hours) was 6.98% and 11.84% and 11.40% and the “% Confluency” value (22Rv1 cells; 80nM SY1365, 22Rv1, 84 hours) was 6.88% and 11.65% and 11.26%. For the same molecule, the “% Confluency” value (22Rv1 cells; 80nM SY1365, 22Rv1, 90 hours) was 6.85% and 11.59% and 11.21%, the “% Confluency” value (22Rv1 cells; 80nM SY1365, 22Rv1, 96 hours) was 6.73% and 11.35% and 10.98% and the “% Confluency” value (22Rv1 cells; 80nM SY1365, 22Rv1, 114 hours) was 6.60% and 11.05% and 10.79%. The “% Confluency” value (22Rv1 cells; 80nM SY1365, 22Rv1, 120 hours) was 6.58% and 10.92% and 10.70%, the “% Confluency” value (22Rv1 cells; 80nM SY1365, 22Rv1, 126 hours) was 6.55% and 10.80% and 10.69% and the “% Confluency” value (22Rv1 cells; 80nM SY1365, 22Rv1, 132 hours) was 6.55% and 10.73% and 10.58%. The “% Confluency” value (22Rv1 cells; 80nM SY1365, 22Rv1, 138 hours) was 6.46% and 10.70% and 10.57%, the “% Confluency” value (22Rv1 cells; 80nM SY1365, 22Rv1, 144 hours) was 6.45% and 10.59% and 10.48% and the “Growth inhibition over time” value (22Rv1 cells; 22Rv1, IncuCyte confluency) was “potently growth inhibited”. For the same molecule, the “Resistance (Fold)” value (MCF7-CDK7-D97N cells; MCF7-CDK7-D97N vs MCF7 WT) was 0.19 fold, the IC50 (MCF7-CDK7-D97N cells; MCF7-CDK7-D97N, 4 days, SRB) was 0.17 nM and the “% Growth” value (MCF7-CDK7-D97N cells; Log10 Conc. (nM) 3.70, 4 days) was -16.61%. The “% Growth” value (MCF7-CDK7-D97N cells; Log10 Conc. (nM) -1.12, 4 days) was 78.15% and 70.71% and 82.37% and 82.39%, the “% Growth” value (MCF7-CDK7-D97N cells; Log10 Conc. (nM) -1.72, 4 days) was 83.93% and 103.71% and 98.90% and the “% Confluency” value (22Rv1-SamR cells [3]; 0 hours) was 10.34% and 15.03% and 14.87%. The “% Confluency” value (22Rv1-SamR cells [3]; 6 hours) was 9.52% and 13.73% and 13.78%, the “% Confluency” value (22Rv1-SamR cells [3]; 12 hours) was 7.18% and 10.14% and 10.08% and the “% Confluency” value (22Rv1-SamR cells [3]; 18 hours) was 6.46% and 9.11% and 8.97%. The “% Confluency” value (22Rv1-SamR cells [3]; 24 hours) was 6.42% and 8.94% and 8.84%, the “% Confluency” value (22Rv1-SamR cells [3]; 30 hours) was 6.40% and 8.87% and 8.89% and the “% Confluency” value (22Rv1-SamR cells [3]; 36 hours) was 6.41% and 8.74% and 8.80%. For the same molecule, the “% Confluency” value (22Rv1-SamR cells [3]; 42 hours) was 6.26% and 8.57% and 8.60%, the “% Confluency” value (22Rv1-SamR cells [3]; 48 hours) was 6.09% and 8.40% and 8.37% and the “% Confluency” value (22Rv1-SamR cells [3]; 54 hours) was 5.90% and 8.18% and 8.12%. The “% Confluency” value (22Rv1-SamR cells [3]; 60 hours) was 5.76% and 7.96% and 7.93%, the “% Confluency” value (22Rv1-SamR cells [3]; 66 hours) was 5.65% and 7.83% and 7.79% and the “% Confluency” value (22Rv1-SamR cells [3]; 72 hours) was 5.56% and 7.64% and 7.59%. For the same molecule, the “% Confluency” value (22Rv1-SamR cells [3]; 78 hours) was 5.44% and 7.53%, the “% Confluency” value (22Rv1-SamR cells [3]; 84 hours) was 5.34% and 7.42% and 7.40% and the “% Confluency” value (22Rv1-SamR cells [3]; 90 hours) was 5.24% and 7.29% and 7.32%. The “% Confluency” value (22Rv1-SamR cells [3]; 96 hours) was 5.21% and 7.20% and 7.25%, the “% Confluency” value (22Rv1-SamR cells [3]; 114 hours) was 5.05% and 7.01% and 7.04% and the “% Confluency” value (22Rv1-SamR cells [3]; 120 hours) was 5.01% and 6.93% and 6.98%. For the same molecule, the “% Confluency” value (22Rv1-SamR cells [3]; 126 hours) was 4.98% and 6.86% and 6.94%, the “% Confluency” value (22Rv1-SamR cells [3]; 132 hours) was 4.95% and 6.82% and 6.86% and the “% Confluency” value (22Rv1-SamR cells [3]; 138 hours) was 4.94% and 6.80% and 6.88%. The “% Confluency” value (22Rv1-SamR cells [3]; 144 hours) was 4.87% and 6.78% and 6.83%, the “Growth inhibition over time” value (22Rv1-SamR cells [3]; 22Rv1-SamR, IncuCyte confluency, samuraciclib at 1.35 µM) was “potently growth inhibited” and the “Inhibition of PolII and CDK2 phosphorylation” value [4] was “maintained”.
